Results: patent publication US8268827B2, “Pyridazinone derivatives as PARP inhibitors” (Istituto di Ricerche di Biologia Molecolare P. Angeletti …, priority 2007, dated 2012)
Structures can show the parent of a compound that is named as a salt.

What follows are molecules tested on BRCA-1 silenced HeLa cells (HeLa shBRCA1-GFP) (assay: Proliferation assay in BRCA-1 silenced HeLa cells). Conditions: Homo sapiens; BRCA1 silenced HeLa cells, 168 hours; read-out: CC50 in the BRCA1 silenced HeLa cells.
Type: cell-based
Procedure: Proliferation Assay in BRCA-1 Silenced HeLa Cells
Compounds of the present invention were also tested in an anti-proliferative assay in matched pair BRCA1 wt and BRCA1-(shRNA) HeLa cells.
The assay is based on the ability of living cells to convert a redox dye (resazurin) into a fluorescent end product (resofurin). The amount of resofurin produced is directly proportional to the cell number.
HeLa shBRCA1-GFP—These are HeLa cells transduced at an MOI of 100 with a Lentivirus containing a shRNA against BRCA-1 and an expression cassette for GFP. BRCA-1 silencing is more than 80% as assessed by Taqman analysis and the cells stably express GFP.
HeLa THM-GFP—These are HeLa cells transduced at an MOI of 100 with a control vector not expressing any shRNA.
• Seed 300 cell/well in 96 wells viewplate black in 90 ul culture Medium*: • Incubate 4 hours at 37° C., 5% CO2 • Add 10 ul/well of 10× compound (5% DMSO in H2O) • Incubate for 168 hours at 37° C., 5% CO2 • Add 10 ul of Celltiter Blue solution (Promega, G8081) pre-diluted 1:1 in PBS1× • Incubate the mixture for 45′ at 37° C., 5% CO2 • Incubate 15′ at RT in the dark • Read plate at fluorimeter ex: 550 nm; em: 590 nm *Culture Medium: DMEM (GIBCO, 41966-029), 10% FCS (GIBCO, 10106-169), 0.1 mg/ml Penicillin-Streptomycin (GIBCO, 15140-114), 2 mM L-Glutamine (GIBCO, 3042190)

SMILES	CC50 [nM]
Cc1c(Cc2ccc(F)c(C(=O)N3CCN(c4ccc(F)c(F)c4)C(=O)C3)c2)n[nH]c(=O)c1C(F)(F)F [Example 26, 3-(3-{[4-(3,4-Difluorophenyl)-3-oxopiperazin-1-yl]carbonyl}-4-fluorobenzyl)-4-methyl-6-oxo-5-(trifluoromethyl)-1,6-dihydropyridazin-1-ium trifluoroacetate]	< 50
O=C(c1cc(Cc2cc(C(F)(F)F)c(=O)[nH]n2)ccc1F)N1CCN(C2CCCCC2)C(=O)C1 [Example 27, 6-{3-[(4-Cyclohexyl-3-oxopiperazin-1-yl)carbonyl]-4-fluorobenzyl}-3-oxo-4-(trifluoromethyl)-2,3-dihydropyridazin-1-ium trifluoroacetate]	50 to 500
CCc1c(Cc2ccc(F)c(C(=O)N3CCN(C4CCCCC4)C(=O)C3)c2)n[nH]c(=O)c1C [Example 28, 3-{3-[(4-Cyclohexyl-3-oxopiperazin-1-yl)carbonyl]-4-fluorobenzyl}-4-ethyl-5-methyl-6-oxo-1,6-dihydropyridazin-1-ium trifluoroacetate]	50 to 500
CCc1c(C)c(Cc2ccc(F)c(C(=O)N3CCN(C4CCCCC4)C(=O)C3)c2)n[nH]c1=O [Example 29, 3-{3-[(4-Cyclohexyl-3-oxopiperazin-1-yl)carbonyl]-4-fluorobenzyl}-5-ethyl-4-methyl-6-oxo-1,6-dihydropyridazin-1-ium trifluoroacetate]	< 50
CCc1cc(Cc2ccc(F)c(C(=O)N3CCN(C4CCCC4)C(=O)C3)c2)n[nH]c1=O [Example 30, 3-{3-[(4-Cyclopentyl-3-oxopiperazin-1-yl)carbonyl]-4-fluorobenzyl}-5-ethyl-6-oxo-1,6-dihydropyridazin-1-ium trifluoroacetate]	< 50
Cc1c(Cc2ccc(F)c(C(=O)N3CCN(c4cc(Cl)cc(Cl)c4)C(=O)C3)c2)n[nH]c(=O)c1C [Example 42, 3-(3-{[4-(3,5-Dichlorophenyl)-3-oxopiperazin-1-yl]carbonyl}-4-fluorobenzyl)-4,5-dimethyl-6-oxo-1,6-dihydropyridazin-1-ium trifluoroacetate]	< 50
Cc1c(Cc2ccc(F)c(C(=O)N3CCN(c4cccc5ccccc45)C(=O)C3)c2)n[nH]c(=O)c1C [Example 43, 3-(4-Fluoro-3-{[4-(1-naphthyl)-3-oxopiperazin-1-yl]carbonyl}benzyl)-4,5-dimethyl-6-oxo-1,6-dihydropyridazin-1-ium trifluoroacetate]	< 50
Cc1c(Cc2ccc(F)c(C(=O)N3CCN(c4cccs4)C(=O)C3)c2)n[nH]c(=O)c1C [Example 44, 3-(4-Fluoro-3-{[3-oxo-4-(2-thienyl)piperazin-1-yl]carbonyl}benzyl)-4,5-dimethyl-6-oxo-1,6-dihydropyridazin-1-ium trifluoroacetate]	< 50
Cc1c(Cc2ccc(F)c(C(=O)N3CCN(CC(C)C(F)(F)F)C(=O)C3)c2)n[nH]c(=O)c1C (stereo not drawn) [Example 45, 6-(4-Fluoro-3-{[3-oxo-4-(3,3,3-trifluoro-2-methylpropyl)piperazin-1-yl]carbonyl}benzyl)-4,5-dimethyl-3-oxo-2,3-dihydropyridazin-1-ium trifluoroacetate]	< 5000
Cc1c(Cc2ccc(F)c(C(=O)N3CCN(C(c4ccccc4)C(F)F)C(=O)C3)c2)n[nH]c(=O)c1C (stereo not drawn) [Example 46, 6-(3-{[4-(2,2-Difluoro-1-phenylethyl)-3-oxopiperazin-1-yl]carbonyl}-4-fluorobenzyl)-4,5-dimethyl-3-oxo-2,3-dihydropyridazin-1-ium trifluoroacetate]	< 50
Cc1c(Cc2ccc(F)c(C(=O)N3CCN(C4CCCOC4)C(=O)C3)c2)n[nH]c(=O)c1C (stereo not drawn) [Example 47, 6-(4-Fluoro-3-{[3-oxo-4-(tetrahydro-2H-pyran-3-yl)piperazin-1-yl]carbonyl}benzyl)-4,5-dimethyl-3-oxo-2,3-dihydropyridazin-1-ium trifluoroacetate]	50 to 500
Cc1c(Cc2ccc(F)c(C(=O)N3CCN(c4csc5ccccc45)C(=O)C3)c2)n[nH]c(=O)c1C [Example 62, 3-(3-{[4-(1-Benzothien-3-yl)-3-oxopiperazin-1-yl]carbonyl}-4-fluorobenzyl)-4,5-dimethyl-6-oxo-1,6-dihydropyridazin-1-ium trifluoroacetate]	50 to 500
Cc1c(Cc2ccc(F)c(C(=O)N3CCN(c4cncs4)C(=O)C3)c2)n[nH]c(=O)c1C [Example 63, 3-(4-Fluoro-3-{[3-oxo-4-(1,3-thiazol-5-yl)piperazin-1-yl]carbonyl}benzyl)-4,5-dimethyl-6-oxo-1,6-dihydropyridazin-1-ium trifluoroacetate]	< 50
Cc1c(Cc2ccc(F)c(C(=O)N3CCN(c4cncnc4)C(=O)C3)c2)n[nH]c(=O)c1C [Example 64, 3-{4-Fluoro-3-[(3-oxo-4-pyrimidin-5-ylpiperazin-1-yl)carbonyl]benzyl}-4,5-dimethyl-6-oxo-1,6-dihydropyridazin-1-ium trifluoroacetate]	< 5000
Cc1c(Cc2ccc(F)c(C(=O)N3CCN(c4cncc(C(F)(F)F)c4)C(=O)C3)c2)n[nH]c(=O)c1C [Example 65, 3-[4-Fluoro-3-({3-oxo-4-[5-(trifluoromethyl)pyridin-3-yl]piperazin-1-yl}carbonyl)benzyl]-4,5-dimethyl-6-oxo-1,6-dihydropyridazin-1-ium trifluoroacetate]	50 to 500
Cc1c(Cc2ccc(F)c(C(=O)N3CCN(C4CCCC(c5ccccc5)C4)C(=O)C3)c2)n[nH]c(=O)c1C (stereo not drawn) [Example 66, 6-(4-Fluoro-3-{[3-oxo-4-(3-phenylcyclohexyl)piperazin-1-yl]carbonyl}benzyl)-4,5-dimethyl-3-oxo-2,3-dihydropyridazin-1-ium trifluoroacetate]	50 to 500
Cc1c(Cc2ccc(F)c(C(=O)N3CCN(C4CCC(c5ccccc5)CC4)C(=O)C3)c2)n[nH]c(=O)c1C (stereo not drawn) [Example 68, 6-(4-Fluoro-3-{[3-oxo-4-(4-phenylcyclohexyl)piperazin-1-yl]carbonyl}benzyl)-4,5-dimethyl-3-oxo-2,3-dihydropyridazin-1-ium trifluoroacetate]	< 50
Cc1c(Cc2ccc(F)c(C(=O)N3CCN(C4CCOC4)C(=O)C3)c2)n[nH]c(=O)c1C (stereo not drawn) [Example 69, 6-(4-Fluoro-3-{[3-oxo-4-(tetrahydrofuran-3-yl)piperazin-1-yl]carbonyl}benzyl)-4,5-dimethyl-3-oxo-2,3-dihydropyridazin-1-ium trifluoroacetate]	50 to 500
Cc1c(Cc2ccc(F)c(C(=O)N3CCN(C4CCc5ccccc5C4)C(=O)C3)c2)n[nH]c(=O)c1C (stereo not drawn) [Example 70, 6-(4-Fluoro-3-{[3-oxo-4-(1,2,3,4-tetrahydronaphthalen-2-yl)piperazin-1-yl]carbonyl}benzyl)-4,5-dimethyl-3-oxo-2,3-dihydropyridazin-1-ium trifluoroacetate]	< 50
Cc1c(Cc2ccc(F)c(C(=O)N3CCN(C4Cc5ccccc5C4)C(=O)C3)c2)n[nH]c(=O)c1C [Example 71, 6-(3-{[4-(2,3-Dihydro-1H-inden-2-yl)-3-oxopiperazin-1-yl]carbonyl}-4-fluorobenzyl)-4,5-dimethyl-3-oxo-2,3-dihydropyridazin-1-ium trifluoroacetate]	50 to 500
Cc1c(Cc2cc(C(=O)N3CCN(C4CCCC4)C(=O)C3)c(F)cc2Br)n[nH]c(=O)c1C [Example 83, 6-{2-Bromo-5-[(4-cyclopentyl-3-oxopiperazin-1-yl)carbonyl]-4-fluorobenzyl}-4,5-dimethylpyridazin-3(2H)-one]	< 50
